Experimental data from ChEMBL document CHEMBL1155755, “Microbial transformation of pyrethrosin” (J Nat Prod, 2001).
≈ marks a conversion by molar mass, not a printed value.

Experiments:
SK-MEL = assay: Cytotoxicity against human SK-MEL cells; assay type: functional, cell-based
Candida albicans = assay: Antifungal activity against Candida albicans; assay type: functional, organism-based
Plasmodium falciparum [1] = assay: Antiplasmodial activity against Plasmodium falciparum D6; assay type: functional, organism-based
Cryptococcus neoformans = assay: Antifungal activity against Cryptococcus neoformans; assay type: functional, organism-based
Plasmodium falciparum [2] = assay: Antiplasmodial activity against chloroquine-resistant Plasmodium falciparum W2; assay type: functional, organism-based
SK-OV-3 = assay: Cytotoxicity against human SKOV3 cells; assay type: functional, cell-based
KB = assay: Cytotoxicity against human KB cells; assay type: functional, cell-based

Compound | IC50 (SK-MEL) | IC50 (Candida albicans) | IC50 (Plasmodium falciparum [1]) | IC50 (Cryptococcus neoformans) | further results
C=C1C(=O)O[C@H]2C[C@@]3(C)O[C@@H]3CC/C(C)=C/[C@@H](OC(C)=O)[C@H]12 [PYRETHROSIN] | 4.2 µg/mL (≈ 13.7 µM) | 30 µg/mL (≈ 97.9 µM) |  |  | 
CC1=CC[C@@H](O)[C@]2(C)C[C@@H]3OC(=O)[C@H](C)[C@H]3[C@H](O)[C@@H]12 | 7.5 µg/mL (≈ 28.2 µM) |  |  |  | 
CC(=O)O[C@H]1[C@H]2[C@H](C[C@@]3(C)[C@H](O)CC[C@@](C)(O)[C@H]13)OC(=O)[C@@H]2C |  | 10 µg/mL (≈ 30.6 µM) | 0.88 µg/mL (≈ 2.7 µM) |  | 
CC(=O)O[C@H]1[C@H]2[C@H](C[C@]3(C)[C@@H]1[C@](C)(O)CC[C@H]3OC(C)=O)OC(=O)[C@@H]2C |  |  | 0.32 µg/mL (≈ 0.869 µM) | 25 µg/mL (≈ 67.9 µM) | IC50 (Plasmodium falciparum [2]): 0.38 µg/mL (≈ 1.03 µM)
C=C1CC[C@@H](O)[C@]2(C)C[C@@H]3OC(=O)[C@H](C)[C@H]3[C@H](OC(C)=O)[C@@H]12 |  |  |  |  | IC50 (SK-OV-3): 8 µg/mL (≈ 25.9 µM); IC50 (KB): 1.1 µg/mL (≈ 3.57 µM)
C=C1CC[C@@H](O)[C@]2(C)C[C@@H]3OC(=O)[C@H](C)[C@H]3[C@H](O)[C@@H]12 |  |  |  | 35 µg/mL (≈ 131 µM) | 
